Assay results as given in patent publication EP0482657A2, “Cephem compounds, their production and use” (Takeda Chemical Industries, Ltd., priority 1990, dated 1992).

What was measured:
Escherichia coli O-111 = assay: Therapeutic effects against intraperitoneal infections in mice (oral administration); type: in vivo; details: O111, po, 120 h; Slc:ICR mice infected intraperitoneally with Escherichia coli O-111; once orally immediately after infection; survival over five days; Reed and Münch; in terms of potency of the said cephem carboxylic acid
Experimental: (§1) Infections in Mice. Test animals: Slc : ICR, 4-week old male mice (body weight 20 to 22 g) were employed. Induction of experimental infections (infected mice):
(§2) Staphylococcus aureus 308A-1 or Escherichia coli 0-111 was cultured in Brain Heart Infusion broth (manufactured by Difco Co.) at 37°C for 20 hours. Each of the organisms was suspended in a 8% mucin solution (manufactured by Difco in) at a concentration of 2 x 10⁸ Colony Forming Units (hereinafter abbreviated as "CFU")/ml and 2 x 10⁵ CFU/ml, respectively, and 0.5 ml of each suspension was administered intraperitoneally. Administration of Test compounds: 25 mg of each test compound was dissolved in 0.5 ml of DMSO, and each solution was diluted in distilled water to prepare two fold dilutions of each compound in the range of 2.5 mg/ml - 0.156 mg/ml in the case of infection with Staphylococcus aureus and in the range of 0.156 mg/ml - 0.01 mg/ml in the case of infection with Escherichia coli. A volume of 0.2 ml of each dilution was once administered orally using a tube into the stomach of five mice each in each group immediately after the infection. […] The ED₅₀ value of each compound was that in terms of the potency of the said cephem carboxylic acid.

[1] = test system: Staphylococcus aureus 308A-1; assay: as above; type: in vivo; details: 308A1, po, 120 h; Slc:ICR mice infected intraperitoneally with Staphylococcus aureus 308A-1; once orally immediately after infection; survival over five days; Reed and Münch; in terms of potency of the said cephem carboxylic acid
Experimental: as §1, §2

Row | Compound | ED50 (Escherichia coli O-111) | ED50 [1]
1 | CCOC(=O)OC(C)OC(=O)C1=C(CSc2nnc(C)s2)CS[C@@H]2[C@H](NC(=O)/C(=N\O)c3csc(N)n3)C(=O)N12 (some centres unmarked) [JP-A-9698/1985 PR Ex.4, 1-(ethoxycarbonyloxy)ethyl ester of the said cephem carboxylic acid, reference compound] | 0.349 mg/kg | > 25 mg/kg
2 | Cc1nnc(SCC2=C(C(=O)OC(C)OC(=O)OC3CCCC3)N3C(=O)[C@@H](NC(=O)/C(=N\O)c4csc(N)n4)[C@H]3SC2)s1 (stereo partly drawn) [Ex.3, 1-(Cyclopentyloxycarbonyloxy)ethyl 7β-[2-(2-aminothiazol-4-yl)-(Z)-2-hydroxyiminoacetamido]-3-[(2-methyl-1,3,4-thiadiazol-5-yl)thiomethyl]-3-cephem-4-carboxylate] | 0.13 mg/kg | 8.84 mg/kg
3 | Cc1nnc(SCC2=C(C(=O)OCOC(=O)C(C)(C)C)N3C(=O)[C@@H](NC(=O)/C(=N\O)c4csc(N)n4)[C@H]3SC2)s1 [JP-A-9698/1985 PR Ex.3, pivaloyloxymethyl ester of the said cephem carboxylic acid, reference compound] | 0.279 mg/kg | 22.3 mg/kg
4 | Cc1nnc(SCC2=C(C(=O)OC(C)OC(=O)OC(C)C)N3C(=O)[C@@H](NC(=O)/C(=N\O)c4csc(N)n4)[C@H]3SC2)s1.Cl (stereo partly drawn) [Ex.2, 1-(Isopropoxycarbonyloxy)ethyl 7β-[2-(2-aminothiazol-4-yl)-(Z)-2-hydroxyiminoacetamido]-3-[(2-methyl-1,3,4-thiadiazol-5-yl)thiomethyl]-3-cephem-4-carboxylate hydrochloride] | 0.13 mg/kg | 5.57 mg/kg
5 | Cc1nnc(SCC2=C(C(=O)O)N3C(=O)[C@@H](NC(=O)/C(=N\O)c4csc(N)n4)[C@H]3SC2)s1 [GB-A-1587941 Ex.16, 7β-[2-(2-aminothiazol-4-yl)-(Z)-2-hydroxyiminoacetamido]-3-[(2-methyl-1,3,4-thiadiazol-5-yl)thiomethyl]-3-cephem-4-carboxylic acid, reference compound] | 1.25 mg/kg | > 25 mg/kg
6 | Cc1nnc(SCC2=C(C(=O)OC(C)OC(=O)OC3CCC3)N3C(=O)[C@@H](NC(=O)/C(=N\O)c4csc(N)n4)[C@H]3SC2)s1.Cl (stereo partly drawn) [Ex.5, 1-(Cyclobutyloxycarbonyloxy)ethyl 7β-[2-(2-aminothiazol-4-yl)-(Z)-2-hydroxyiminoacetamido]-3-[(2-methyl-1,3,4-thiadiazol-5-yl)thiomethyl]-3-cephem-4-carboxylate hydrochloride] | – | 14 mg/kg
7 | CCC(CC)OC(=O)OC(C)OC(=O)C1=C(CSc2nnc(C)s2)CS[C@@H]2[C@H](NC(=O)/C(=N\O)c3csc(N)n3)C(=O)N12.Cl (stereo partly drawn) [Ex.6, 1-(1-Ethylpropoxycarbonyloxy)ethyl 7β-[2-(2-aminothiazol-4-yl)-(Z)-2-hydroxyiminoacetamido]-3-[(2-methyl-1,3,4-thiadiazol-5-yl)thiomethyl]-3-cephem-4-carboxylate hydrochloride] | – | 12.5 mg/kg
8 | Cc1nnc(SCC2=C(C(=O)OC(C)OC(=O)OC(C)C)N3C(=O)[C@@H](NC(=O)/C(=N\O)c4csc(N)n4)[C@H]3SC2)s1 (single isomer, unassigned) [Ex.1, 1-(Isopropoxycarbonyloxy)ethyl 7β-[2-(2-aminothiazol-4-yl)-(Z)-2-hydroxyiminoacetamido]-3-[(2-methyl-1,3,4-thiazol-5-yl)thiomethyl]-3-cephem-4-carboxylate] | 0.141 mg/kg | 7.02 mg/kg
